The values below come from patent US20250009834A1, “COMPOSITION OF BEVERAGE CONCENTRATE CONTAINING CITRIC ACID AND NATURAL ANTIOXIDANT” (priority 2021, published 2025).

This assay can be described thus: CaOx aggregation inhibition (aggregation coefficient of seed COM crystals). The conditions noted are these: 200 μL sample added to 2 mL seed COM suspension, 37° C., 10 min; embodiment 100% concentration; BSA 1 mg/mL; citric acid positive control. On the procedure: In the following in-vitro trials, all “%” marks represented percentages by weight. An embodiment of “100%” concentration was prepared by mixing 60 mL of a beverage concentrate of an exemplary composition (see Table 1 above) with 440 mL of distilled water, equivalent to a ratio of 0.136 parts of the exemplary composition to one part of water. An embodiment of a concentration lower than 100% was prepared by further diluting said embodiment of 100% concentration with distilled water by a conventionally known dilution means that is appropriate for food and beverages. All the mixtures concerned were conventionally mixed to achieve effective uniformity for food and beverages.
Seed calcium oxalate monohydrate (COM) crystals were prepared and diluted to 50 mg/mL in 0.05 M Tris/0.15 NaCl, pH 6.5. An embodiment having the 100% concentration, or bovine serum albumin (BSA) or distilled water (blank) (200 μL) was added to the freshly prepared working seed COM suspension (2 mL). After mixing, absorbance at 620 nm was measured as baseline (AT0). After incubating at 37° C. for 10 min. absorbance was measured again (AT10). The aggregation coefficient (AC) was calculated from: AC=((AT0−AT10)/10)×1,000. Higher AC value indicates higher COM aggregation.

Regarding `O=C(O)CC(O)(CC(=O)O)C(=O)O` [Citric acid], the “aggregation of seed COM crystals” value is reported as “strongly inhibited”.

As for bovine serum albumin [BSA], the “aggregation of seed COM crystals” value is reported as “did not”.
